The values that follow come from PubChem BioAssay (NCI).

Some test systems named below: ACHN renal; BT-549 breast; CCRF-CEM leukemia; IGROV1 ovarian; OVCAR-4 ovarian; SK-OV-3 ovarian; SNB-19 CNS; U251 CNS; UACC-62 melanoma; UO-31 renal.
Assay in all cases: DTP human tumour cell line panel, 48 h

The structures appear in SMILES notation. Where “and” joins values, the source holds several entries; their conditions need not be identical. Equal values may be shown once.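 Grown in 96-well plates, cells were treated for 48 hours with each compound at five concentrations. Insufficient inhibition: endpoint recorded as highest concentration tested. The concentration for 50% growth inhibition is given as GI50. TGI: total growth inhibition.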 Some results are limits rather than exact numbers.

Consider `Cc1ncc2c(n1)CCC1=C2OS(=O)(=O)CC1N(C)C` (stereo not drawn), for which the TGI in the assay with ACHN renal, in the assay with BT-549 breast, with CCRF-CEM leukemia, in the assay with IGROV1 ovarian, with OVCAR-4 ovarian and in the assay on SK-OV-3 ovarian was greater than 100 µM each time. Further, the concentration for total growth inhibition (TGI) in the assay with SNB-19 CNS, with U251 CNS, in the assay on UACC-62 melanoma and in the assay on UO-31 renal was greater than 100 µM in each case.
As to `O=C(Nc1ccc(Br)cc1)c1cc(Br)ccc1O`, the GI50 in the assay on ACHN renal is 0.61 µM and 1.47 µM; with BT-549 breast, 0.327 µM and 0.724 µM; with CCRF-CEM leukemia, 0.862 µM and 0.752 µM; with IGROV1 ovarian, 0.346 µM and 0.749 µM; in the assay on OVCAR-4 ovarian it was 0.452 µM and 1.17 µM; in the assay on SK-OV-3 ovarian, 0.747 µM and 1.8 µM. The GI50 was 0.339 µM and 1 µM with SNB-19 CNS; 0.417 µM and 0.682 µM in the assay with U251 CNS; 0.235 µM and 0.371 µM in the assay on UACC-62 melanoma; 0.247 µM and 0.767 µM in the assay on UO-31 renal. Further, the TGI with ACHN renal is greater than 64 µM; in the assay on BT-549 breast, 2.12 µM and 3.03 µM; in the assay with IGROV1 ovarian, 22.8 µM and 17 µM; with OVCAR-4 ovarian, greater than 100 µM; in the assay with SNB-19 CNS it was greater than 93.1 µM; in the assay on U251 CNS, greater than 100 µM. The concentration for total growth inhibition (TGI) was 1.07 µM and 2.25 µM in the assay on UACC-62 melanoma; 2.16 µM and 9.78 µM in the assay with UO-31 renal.
As to `O=C1/C(=C/c2ccccc2)CN(C(=O)/C=C/c2ccccc2)C/C1=C\c1ccccc1`, the TGI in the assay with ACHN renal worked out at 38.5 µM; in the assay on BT-549 breast, 4.7 µM; in the assay on CCRF-CEM leukemia it was 9 µM; in the assay on IGROV1 ovarian, 22.2 µM; in the assay with OVCAR-4 ovarian, 24.7 µM; in the assay with SK-OV-3 ovarian, 57.9 µM. The TGI in the assay with SNB-19 CNS turned out to be 25.9 µM; in the assay with U251 CNS it was 7.37 µM; in the assay with UACC-62 melanoma it was 16.2 µM; in the assay on UO-31 renal it was 20.6 µM.
Take `Nc1ncnc2occ(-c3ccc(NC(=O)Nc4cccc(C(F)(F)F)c4)cc3)c12`: the GI50 in the assay with ACHN renal is 1.4 µM; in the assay on BT-549 breast it was 4.32 µM; in the assay with CCRF-CEM leukemia, 3.51 µM; in the assay with IGROV1 ovarian, 2.02 µM; in the assay with OVCAR-4 ovarian, 3.19 µM; in the assay on SK-OV-3 ovarian, 4.91 µM. In addition, the GI50 was 7.69 µM in the assay with SNB-19 CNS, 5.27 µM in the assay on U251 CNS, 3.02 µM in the assay on UACC-62 melanoma and 2.88 µM in the assay on UO-31 renal. Moreover, the TGI stood at 12.1 µM in the assay with ACHN renal; 10.5 µM in the assay on BT-549 breast; 20.1 µM in the assay with CCRF-CEM leukemia; 10.2 µM with IGROV1 ovarian; 17.7 µM in the assay with OVCAR-4 ovarian; 17.9 µM in the assay with SK-OV-3 ovarian. The TGI in the assay on SNB-19 CNS is 21.3 µM; in the assay on U251 CNS, 16.5 µM; in the assay with UACC-62 melanoma, 6.54 µM; in the assay on UO-31 renal, 11 µM.
For `O=C(O)CC(CC(=O)O)n1cccc1`, the TGI with ACHN renal, in the assay on BT-549 breast, in the assay with CCRF-CEM leukemia, in the assay on IGROV1 ovarian, with OVCAR-4 ovarian and in the assay on SK-OV-3 ovarian was greater than 100 µM throughout. In addition, the total growth inhibition concentration (TGI) with SNB-19 CNS, in the assay with U251 CNS, in the assay on UACC-62 melanoma and with UO-31 renal was greater than 100 µM throughout.
With `O=C(NCCc1nccs1)c1cnc2c(S)cccc2c1`, the GI50 with ACHN renal is 3.36 µM; with BT-549 breast, 2.61 µM; with CCRF-CEM leukemia it was 1.77 µM; in the assay with IGROV1 ovarian, 1.96 µM; with OVCAR-4 ovarian, 2.72 µM; in the assay on SK-OV-3 ovarian it was 3.56 µM. Moreover, the GI50 with SNB-19 CNS was 3.41 µM; in the assay on U251 CNS, 2.53 µM; in the assay with UACC-62 melanoma, 2.68 µM; with UO-31 renal, 3.26 µM. The TGI was 14.1 µM in the assay on ACHN renal; greater than 100 µM in the assay on BT-549 breast; greater than 100 µM in the assay with CCRF-CEM leukemia; 24.7 µM in the assay with IGROV1 ovarian; 34 µM in the assay on OVCAR-4 ovarian; 15 µM with SK-OV-3 ovarian. In addition, the total growth inhibition concentration (TGI) came to 33.1 µM in the assay with SNB-19 CNS, 16.7 µM in the assay on U251 CNS, 24.1 µM in the assay with UACC-62 melanoma and 16 µM in the assay with UO-31 renal.
Consider `O=C1c2c[n+](Cc3ccccc3)ccc2-c2nc3ccccc3c3ccnc1c23`, for which the concentration for 50% growth inhibition (GI50) is 0.196 µM with ACHN renal; 1.15 µM in the assay with BT-549 breast; 0.951 µM in the assay with CCRF-CEM leukemia; 0.827 µM in the assay with IGROV1 ovarian; 0.468 µM in the assay on OVCAR-4 ovarian; 0.568 µM with SK-OV-3 ovarian. For the same compound, the GI50 with SNB-19 CNS is 0.389 µM; in the assay on U251 CNS it was 0.541 µM; with UACC-62 melanoma it was 0.594 µM; with UO-31 renal, 0.756 µM. Also, the total growth inhibition concentration (TGI) in the assay with ACHN renal was 33.3 µM; in the assay with BT-549 breast, 4.85 µM; with CCRF-CEM leukemia, 2.81 µM; in the assay with IGROV1 ovarian it was 4.04 µM; with OVCAR-4 ovarian, 0.92 µM; in the assay on SK-OV-3 ovarian it was 2.56 µM. The TGI in the assay with SNB-19 CNS turned out to be 2.55 µM; in the assay on U251 CNS, 1.64 µM; in the assay on UACC-62 melanoma, 1.78 µM; with UO-31 renal, 17 µM.
In the case of `CC(=O)OC1C(C)OC(Oc2c(-c3ccc(O)cc3)oc3cc(O)cc(O)c3c2=O)C(O)C1OC(C)=O` (stereo not drawn), the GI50 was 52.3 µM in the assay on ACHN renal; 19.9 µM in the assay with BT-549 breast; 30.2 µM in the assay on CCRF-CEM leukemia; 31.7 µM in the assay on IGROV1 ovarian; 35.9 µM in the assay on OVCAR-4 ovarian; 56.4 µM in the assay with SK-OV-3 ovarian. In addition, the GI50 in the assay with SNB-19 CNS is 36.2 µM; with U251 CNS, 32.1 µM; with UACC-62 melanoma it was 21.4 µM; in the assay with UO-31 renal, 39.3 µM. The TGI was greater than 100 µM in the assay with ACHN renal; 54.8 µM in the assay with BT-549 breast; greater than 100 µM in the assay with CCRF-CEM leukemia; greater than 79.8 µM with IGROV1 ovarian; greater than 100 µM in the assay with OVCAR-4 ovarian; greater than 100 µM with SK-OV-3 ovarian. The TGI with SNB-19 CNS is greater than 100 µM; in the assay with U251 CNS, greater than 100 µM; with UACC-62 melanoma it was greater than 60.5 µM; in the assay on UO-31 renal it was greater than 100 µM.
Consider `COc1cccc(C2=C(c3cn(C)c4c(C)cccc34)C(=O)NC2=O)c1`, for which the GI50 was 16.8 µM in the assay on ACHN renal; greater than 25 µM with BT-549 breast; greater than 25 µM with CCRF-CEM leukemia; greater than 25 µM in the assay on IGROV1 ovarian; greater than 14.3 µM with OVCAR-4 ovarian; greater than 25 µM with SK-OV-3 ovarian. In addition, the GI50 was greater than 25 µM with SNB-19 CNS, 14.9 µM in the assay with U251 CNS, greater than 22.1 µM in the assay with UACC-62 melanoma and greater than 20.2 µM in the assay with UO-31 renal. The total growth inhibition concentration (TGI) with ACHN renal, with BT-549 breast, in the assay with CCRF-CEM leukemia, with IGROV1 ovarian, with OVCAR-4 ovarian and in the assay on SK-OV-3 ovarian was greater than 25 µM in each case. Further, the TGI in the assay on SNB-19 CNS, with U251 CNS, in the assay on UACC-62 melanoma and in the assay on UO-31 renal was greater than 25 µM throughout.

Broadly, the TGI is the concentration giving total growth inhibition. Read a high TGI as lower sensitivity of the cells. By GI50 is commonly meant the concentration giving 50% growth inhibition.
